Reference: patent US11986471B2, “Compounds and methods of use” (Tango Therapeutics, Inc., priority 2018, dated 2024)

Experiments:
[1] = target: T1, PRMT5 (Homo sapiens, UniProt O14744); assay: PRMT5 IC50 assay in the presence of SAM as cofactor; assay type: biochemical
T1 construct: purchased Viva (custom protein)
Summary of the method: (§1)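 Human PRMT5 inhibition, IC50 in μM; cofactor varied (SAM / MTA / none).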

[2] = target: T1, PRMT5; assay: PRMT5 IC50 assay with no cofactor; assay type: biochemical
Summary of the method: as §1

[3] = target: T1, PRMT5; assay: PRMT5 IC50 assay in the presence of MTA as cofactor; assay type: biochemical; conditions: for IC50: PRMT5, MTA as cofactor; for SAM/MTA Ratio: ratio between the Ki in the presence of SAM and the Ki in the presence of MTA
Summary of the method: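 IC50 against PRMT5 determined with SAM as cofactor, with no cofactor, and with MTA as cofactor. Ki derived as IC50/1.5 for the SAM assay and IC50/13.5 for the MTA assay; SAM Ki to MTA Ki ratio also reported.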

[4] = tested on: HAP1 MTAP-intact; assay: SDMA in-cell western assay, HAP1 MTAP-intact cell line; assay type: cell-based; conditions: Homo sapiens
Summary of the method: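 Cells from two matched HAP1 lines, MTAP-null and MTAP-expressing at endogenous levels, are treated with compound. SDMA is then quantified by in-cell western and an IC50 is calculated for each line.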

[5] = tested on: HAP1 MTAP-deleted; assay: SDMA in-cell western assay, HAP1 MTAP-deleted cell line; assay type: cell-based; conditions: for IC50: Homo sapiens, HAP1 MTAP-deleted cell line; for MTAP Intact/Deleted Ratio: IC50 ratio HAP1 MTAP-intact / HAP1 MTAP-deleted
Summary of the method: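 MTAP-null HAP1 cells, the deleted member of an isogenic pair with endogenously MTAP-expressing HAP1, are treated with compound. SDMA is then quantified by in-cell western and an IC50 is calculated.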

T1 sequence (O14744 whole entry): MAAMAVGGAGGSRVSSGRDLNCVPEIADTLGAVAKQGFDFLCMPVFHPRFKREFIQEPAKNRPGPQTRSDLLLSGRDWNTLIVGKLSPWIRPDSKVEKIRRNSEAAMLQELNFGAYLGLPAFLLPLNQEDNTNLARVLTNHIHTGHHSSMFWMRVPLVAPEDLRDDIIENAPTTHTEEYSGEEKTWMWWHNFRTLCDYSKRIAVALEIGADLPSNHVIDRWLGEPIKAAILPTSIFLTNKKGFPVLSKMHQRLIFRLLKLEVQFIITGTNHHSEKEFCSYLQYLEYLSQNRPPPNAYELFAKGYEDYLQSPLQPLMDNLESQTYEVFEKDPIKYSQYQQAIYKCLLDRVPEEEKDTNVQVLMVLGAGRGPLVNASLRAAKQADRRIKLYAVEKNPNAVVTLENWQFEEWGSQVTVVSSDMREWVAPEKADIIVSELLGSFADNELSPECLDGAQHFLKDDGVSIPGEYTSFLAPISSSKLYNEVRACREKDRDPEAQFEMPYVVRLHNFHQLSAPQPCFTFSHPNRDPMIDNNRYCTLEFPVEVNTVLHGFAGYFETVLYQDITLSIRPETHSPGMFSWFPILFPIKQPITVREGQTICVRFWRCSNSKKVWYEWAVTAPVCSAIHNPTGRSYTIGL
T1 sequence (Q9BQA1 whole entry partner): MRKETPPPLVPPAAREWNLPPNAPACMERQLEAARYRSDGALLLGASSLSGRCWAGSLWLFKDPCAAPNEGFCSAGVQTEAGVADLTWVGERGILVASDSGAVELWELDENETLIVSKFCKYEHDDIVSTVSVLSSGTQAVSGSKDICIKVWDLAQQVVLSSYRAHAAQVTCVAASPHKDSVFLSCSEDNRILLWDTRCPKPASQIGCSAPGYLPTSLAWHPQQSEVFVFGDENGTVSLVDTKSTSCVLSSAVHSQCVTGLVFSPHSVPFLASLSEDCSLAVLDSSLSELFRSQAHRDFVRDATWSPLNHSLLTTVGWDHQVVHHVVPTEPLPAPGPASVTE

Row | IC50 [1] [nM] | IC50 [2] [nM] | IC50 [3] [nM] | IC50 [4] [nM] | IC50 [5] [nM] | Structure (SMILES) | SAM/MTA Ratio [3] | MTAP Intact/Deleted Ratio [5]
1 | 50 to 500 | 500 to 5000 | 50 to 500 | 1000 to 10000 | 1000 to 10000 | CC(=O)N1CCC(Nc2cc(C(=O)NC[C@H](O)CN3CCc4cc(OCc5ocnc5C)c(F)cc4C3)ncn2)CC1 [Compound 576, 6-[(1-acetyl-4-piperidyl)amino]-N-[(2S)-3-[7-fluoro-6-[(4-methyloxazol-5-yl)methoxy]-3N-dihydro-1H-isoquinolin-2-yl]-2-hydroxy-propyl]pyrimidine-4-carboxamide] | A (a Ki ratio greater than or equal to 10 fold between the Ki in the presence of SAM and the Ki in the presence of MTA) | B* (an IC50 ratio greater than or equal to 3 fold but lower than 10 fold between the IC50 in the HAP1 MTAP-intact cell line and the HAP1 MTAP-deleted cell line)
2 | 50 to 500 | 500 to 5000 | 50 to 500 | 1000 to 10000 | 1000 to 10000 | COc1ccc(C(=O)N2CCc3cc(C(=O)NC[C@H](O)CN4CCc5cc(OCc6ocnc6C)c(F)cc5C4)ccc3C2)cc1 [Compound 577, N-[(2S)-3-[7-fluoro-6-[(4-methyloxazol-5-yl)methoxy]-3N-dihydro-1H-isoquinolin-2-yl]-2-hydroxy-propyl]-2-(4-methoxybenzoyl)-3N-dihydro-1H-isoquinoline-6-carboxamide] | A (a Ki ratio greater than or equal to 10 fold between the Ki in the presence of SAM and the Ki in the presence of MTA) | B* (an IC50 ratio greater than or equal to 3 fold but lower than 10 fold between the IC50 in the HAP1 MTAP-intact cell line and the HAP1 MTAP-deleted cell line)
3 | 50 to 500 | 500 to 5000 | 50 to 500 | 1000 to 10000 | 1000 to 10000 | Cc1ncoc1COc1cc2c(cc1F)CN(C[C@@H](O)CNC(=O)c1ccc3c(c1)CCN(C(=O)c1ccc(Br)cc1)C3)CC2 [Compound 578, 2-(4-bromobenzoyl)-N-[(2S)-3-[7-fluoro-6-[(4-methyloxazol-5-yl)methoxy]-3,4-dihydro-1H-isoquinolin-2-yl]-2-hydroxy-propyl]-3,4-dihydro-1H-isoquinoline-6-carboxamide] | A (a Ki ratio greater than or equal to 10 fold between the Ki in the presence of SAM and the Ki in the presence of MTA) | B* (an IC50 ratio greater than or equal to 3 fold but lower than 10 fold between the IC50 in the HAP1 MTAP-intact cell line and the HAP1 MTAP-deleted cell line)
4 | 50 to 500 | 50 to 500 | 50 to 500 | 1000 to 10000 | < 1000 | CC(=O)N1CC(Nc2cc(C(=O)NC[C@H](O)CN3CCc4cc(OCc5ocnc5C)c(F)cc4C3)nc(N3CCCCC3)n2)C1 [Compound 579, 6-[(1-acetylazetidin-3-yl)amino]-N-[(2S)-3-[7-fluoro-6-[(4-methyloxazol-5-yl)methoxy]-3,4-dihydro-1H-isoquinolin-2-yl]-2-hydroxy-propyl]-2-(1-piperidyl)pyrimidine-4-carboxamide] | A (a Ki ratio greater than or equal to 10 fold between the Ki in the presence of SAM and the Ki in the presence of MTA) | A* (an IC50 ratio greater than or equal to 10 fold between the IC50 in the HAP1 MTAP-intact cell line and the HAP1 MTAP-deleted cell line)
5 | 50 to 500 | ≥ 5000 | 50 to 500 | 1000 to 10000 | 1000 to 10000 | Cc1ncoc1COc1ccc2c(c1)CCN(C[C@@H](O)CNC(=O)c1ccnc(Nc3cccnc3)c1)C2 [Compound 581, (S)—N-(2-hydroxy-3-(6-((4-methyloxazol-5-yl)methoxy)-3,4-dihydroisoquinolin-2(1H)-yl)propyl)-2-(pyridin-3-ylamino)isonicotinamide] | A (a Ki ratio greater than or equal to 10 fold between the Ki in the presence of SAM and the Ki in the presence of MTA) | B* (an IC50 ratio greater than or equal to 3 fold but lower than 10 fold between the IC50 in the HAP1 MTAP-intact cell line and the HAP1 MTAP-deleted cell line)
6 | 50 to 500 | 500 to 5000 | 50 to 500 | 1000 to 10000 | < 1000 | COCCN(C)c1cc(C(=O)NC[C@H](O)CN2CCc3cc(OCc4ocnc4C)ccc3C2)cc(NC2CCN(C(C)=O)CC2)n1 [Compound 582] | A (a Ki ratio greater than or equal to 10 fold between the Ki in the presence of SAM and the Ki in the presence of MTA) | A* (an IC50 ratio greater than or equal to 10 fold between the IC50 in the HAP1 MTAP-intact cell line and the HAP1 MTAP-deleted cell line)

More lines, now with the values behind:

Row | Structure (SMILES) | IC50 [1] [nM] | IC50 [2] [nM] | IC50 [3] [nM] | IC50 [4] [nM] | IC50 [5] [nM] | SAM/MTA Ratio [3] | MTAP Intact/Deleted Ratio [5]
7 | CC(=O)N1CC(Nc2cc(C(=O)NC[C@H](O)CN3CCc4c(ccc(OCc5ocnc5C)c4C)C3)nc(C(C)(C)C)n2)C1 [Compound 569, (S)-6-((1-acetylazetidin-3-yl)amino)-2-(tert-butyl)-N-(2-hydroxy-3-(5-methyl-6-((4-methyloxazol-5-yl)methoxy)-3,4-dihydroisoquinolin-2(1H)-yl)propyl)pyrimidine-4-carboxamide] | 50 to 500 | ≥ 5000 | 50 to 500 | ≥ 10000 | 1000 to 10000 | A (a Ki ratio greater than or equal to 10 fold between the Ki in the presence of SAM and the Ki in the presence of MTA) | B* (an IC50 ratio greater than or equal to 3 fold but lower than 10 fold between the IC50 in the HAP1 MTAP-intact cell line and the HAP1 MTAP-deleted cell line)
8 | CCC(=O)N1CCN(c2cc(C(=O)NC[C@H](O)CN3CCc4c(ccc(OCc5cnco5)c4Cl)C3)cc(NC3CCC3)n2)CC1 [Compound 570, (S)—N-(3-(5-chloro-6-(oxazol-5-ylmethoxy)-3N-dihydroisoquinolin-2(1H)-yl)-2-hydroxypropyl)-2-(cyclobutylamino)-6-(4-propionylpiperazin-1-yl)isonicotinamide] | 50 to 500 | 500 to 5000 | 50 to 500 | ≥ 10000 | < 1000 | A (a Ki ratio greater than or equal to 10 fold between the Ki in the presence of SAM and the Ki in the presence of MTA) | A* (an IC50 ratio greater than or equal to 10 fold between the IC50 in the HAP1 MTAP-intact cell line and the HAP1 MTAP-deleted cell line)
9 | O=C(NC[C@H](O)CN1CCc2c(ccc(OCc3cnco3)c2Cl)C1)c1cc(NC2CCC2)nc(N2CCN(C(=O)C3CC3)CC2)c1 [Compound 571, (S)—N-(3-(5-chloro-6-(oxazol-5-ylmethoxy)-3N-dihydroisoquinolin-2(1H)-yl)-2-hydroxypropyl)-2-(cyclobutylamino)-6-(4-(cyclopropanecarbonyl)piperazin-1-yl)isonicotinamide] | 50 to 500 | 500 to 5000 | 50 to 500 | ≥ 10000 | < 1000 | A (a Ki ratio greater than or equal to 10 fold between the Ki in the presence of SAM and the Ki in the presence of MTA) | A* (an IC50 ratio greater than or equal to 10 fold between the IC50 in the HAP1 MTAP-intact cell line and the HAP1 MTAP-deleted cell line)
10 | CO[C@H]1CC[C@H](Nc2cc(C(=O)NC[C@H](O)CN3CCc4c(ccc(OCc5cnco5)c4C)C3)ncn2)CC1 [Compound 572, N-[(2S)-2-hydroxy-3-{5-methyl-6-[(1,3-oxazol-5-yl)methoxy]-1,2,3,4-tetrahydroisoquinolin-2-yl}propyl]-6-{[(1r,4r)-4-methoxycyclohexyl]amino}pyrimidine-4-carboxamide] | 500 to 5000 | ≥ 5000 | 50 to 500 | ≥ 10000 | ≥ 10000 | A (a Ki ratio greater than or equal to 10 fold between the Ki in the presence of SAM and the Ki in the presence of MTA) | C* (an IC50 ratio of less than 3 fold between the IC50 in the HAP1 MTAP-intact cell line and the HAP1 MTAP-deleted cell line)
11 | CC(=O)N1CC(Nc2cc(C(=O)NC[C@H](O)CN3CCc4c(ccc(OCc5ocnc5C)c4C)C3)nc(N3CCOCC3)n2)C1 [Compound 574, 6-[(1-acetylazetidin-3-yl)amino]-N-[(2S)-2-hydroxy-3-{5-methyl-6-[(4-methyl-1,3-oxazol-5-yl)methoxy]-1,2,3,4-tetrahydroisoquinolin-2-yl}propyl]-2-(morpholin-4-yl)pyrimidine-4-carboxamide] | 50 to 500 | ≥ 5000 | 50 to 500 | ≥ 10000 | 1000 to 10000 | A (a Ki ratio greater than or equal to 10 fold between the Ki in the presence of SAM and the Ki in the presence of MTA) | C* (an IC50 ratio of less than 3 fold between the IC50 in the HAP1 MTAP-intact cell line and the HAP1 MTAP-deleted cell line)
12 | CC(=O)N1CC(Nc2cc(C(=O)NC[C@H](O)CN3CCc4c(ccc(OCc5ocnc5C)c4C)C3)nc(C(C)C)n2)C1 [Compound 575, (S)-6-((1-acetylazetidin-3-yl)amino)-N-(2-hydroxy-3-(5-methyl-6-((4-methyloxazol-5-yl)methoxy)-3A-dihydroisoquinolin-2(1H)-yl)propyl)-2-isopropylpyrimidine-4-carboxamide] | 50 to 500 | ≥ 5000 | 50 to 500 | ≥ 10000 | 1000 to 10000 | A (a Ki ratio greater than or equal to 10 fold between the Ki in the presence of SAM and the Ki in the presence of MTA) | B* (an IC50 ratio greater than or equal to 3 fold but lower than 10 fold between the IC50 in the HAP1 MTAP-intact cell line and the HAP1 MTAP-deleted cell line)
